Experimental data as given in patent publication US12215332B2, “Method of increasing resistance against soybean rust in transgenic plants by increasing the scoparone” (BASF PLANT SCIENCE COMPANY GMBH, priority 2018, dated 2025).
Entries after “also recorded” stand apart in the source; their conditions may differ.

How the values were obtained:
[1] = ABTS assay of coumarins' antioxidant activity; type: physicochemical; details: absorbance at 734 nm, 7 minutes at 37° C., compared to scopoletin, scopolin, umbelliferone, ascorbic acid and Trolox
Method: Antioxidant activity of scoparone was determined in an 2,2′-azinobis-(3-ethylbenzothiazoline-6-sulfonic acid) (ABTS)-assay and compared to authentic analytical standards of scopoletin, scopolin, umbelliferone, ascorbic acid and Trolox (6-hydroxy-2,5,7,8-tetramethylchroman-2-carboxylic acid).
The 2,2′-azinobis-(3-ethylbenzothiazoline-6-sulfonic acid (ABTS)-assay10 was applied to compare the antioxidant activity of different coumarins to Trolox and ascorbic acid as references. The radical monocation of ABTS (ABTS·+) was generated by oxidation of ABTS with potassium persulfate (K2S2O8) This was done by mixing aqueous ABTS (7 mM) and K2S2O8 (2.4 mM) in a 1:1 ratio (v/v). The mixture was placed in the dark and incubated at room temperature for 16 hours and then diluted with ethanol to an absorbance of 0.7 (±0.02) at 734 nm. All solutions were brought to a temperature of 37° C. Next, 990 μl of ABTS·+ was mixed with 10 μl of a test solution containing different concentrations of a coumarin standard. Ascorbic acid and Trolox served as positive and ethanol as the blanc control. Mixtures were incubated at 37° C. in a thermomixer (700 rpm) for 7 minutes. Absorbance at 734 nm was measured in a spectrophotometer following incubation for 7 minutes at 37° C. in a thermomixer (700 rpm).

[2] = tested on: Phakopsora pachyrhizi uredospores; assay: In vitro growth inhibition of Phakopsora pachyrhizi: appressoria formation on glass slides; type: cell-based
Method: FIG. 2 depicts the inhibition of P. pachyrhitzi appressoria formation by scoparone in a concentration-dependent manner. P. pachyrhizi uredospores were resuspended in H2O supplemented with Tween-20 and 10 μM, 25 μM, 50 μM, 100 μM, 200 μM and 400 μM scoparone (solved in 0.1% DMSO) and incubated on glass slides in high humidity conditions. Treatment with 0.1% DMSO and H2O served as controls. The appressoria formation rate was determined by quantitative microscopic analysis. Only spores showing germtube formation with a visible thickening of the germ tube tip were counted as appressoria formation.
Uredospores of P. pachyrhizi (isolate BRO5) were harvested from heavily infected soybean leaves and equally suspended in water by shaking for 25 s at 5′000 rpm on a Precellys 24 homogenizer in the absence of homogenizing beads (Bertin instruments). […] Germination of spores and fungal development was evaluated by counting developing appressoria in the presence of 10-400 μM scoparone (in 0.1% DMSO) and compared to fungal proliferation in presence of H2O or 0.1% DMSO only (controls).
The germination rate and appressoria formation rate was determined by quantitative microscopic analysis. Spores showing a visible germ tube formation but no thickening of the germ tube tip were counted as “germinated”, whereas the presence of a thickened germ tube tip indicated the formation of an appressoria. […]

COc1cc2ccc(=O)oc2cc1OC [scoparone, 6,7-dimethoxycoumarin]
antioxidant activity [1]: lacks antioxidant activity
formation of appressoria in-vitro ([2]; 400 μM scoparone): completely abolishes the formation of appressoria
appressoria formation rate ([2]; 10, 25, 50, 100, 200 and 400 μM scoparone in 0.1% DMSO, spores in H2O with Tween-20 on glass slides, controls 0.1% DMSO and H2O): inhibiting appressoria formation in a dose dependent manner; also recorded: decreases the formation of appressoria in a dose dependent manner
